Source: patent US11318136B2, “Identification of granins as the pathogenic factor of alzheimer's disease and compositions and methods for inhibiting granin aggregation and treating alzheimer's disease” (priority 2018, dated 2022)

Tests used:
chromogranin A (CGA) = target: T1, chromogranin A (CGA) (Bos taurus, UniProt P05059); experiment: Metal-induced chromogranin A aggregation (turbidity); assay type: biochemical, bovine; conditions: 1 μM compound, pH 7.4; for Fe2+-induced chromogranin A aggregation / Cu2+-induced chromogranin A aggregation: chromogranin A 0.005 mg/ml (0.1 μM); for Zn2+-induced chromogranin A aggregation: chromogranin A 0.005 mg/ml
T1 construct: from tissue; host or cells: secretory granules of bovine adrenal medulla
T1 sequence (P05059 19-449): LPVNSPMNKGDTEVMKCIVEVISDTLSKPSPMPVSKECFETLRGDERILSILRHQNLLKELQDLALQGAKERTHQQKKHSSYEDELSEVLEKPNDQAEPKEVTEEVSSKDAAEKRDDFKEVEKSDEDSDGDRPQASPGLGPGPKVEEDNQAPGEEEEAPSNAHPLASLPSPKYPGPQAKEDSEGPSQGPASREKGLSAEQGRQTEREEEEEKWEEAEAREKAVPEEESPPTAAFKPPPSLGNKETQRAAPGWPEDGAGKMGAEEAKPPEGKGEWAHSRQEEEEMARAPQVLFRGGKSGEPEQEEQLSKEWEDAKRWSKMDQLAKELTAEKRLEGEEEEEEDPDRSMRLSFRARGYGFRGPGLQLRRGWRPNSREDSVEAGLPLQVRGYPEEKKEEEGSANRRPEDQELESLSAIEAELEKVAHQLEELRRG
Description: (§1) Materials: The major granin proteins, chromogranin A (CGA), chromogranin B (CGB), and secretogranin II (SgII) were purified from secretory granules of bovine adrenal medulla as described (Park et al., 2002; Yoo, 1995; Yoo and Albanesi, 1990). Chelex 100 was from Bio-Rad (U.S.A), and other chemicals were of highest purity that is commercially available. Purified native chromogranin B (c), secretogranin II (d), and chromogranin A (b) are illustrated in FIG. 4. The flavonoids, stilbenoids, and the other test compounds used in the present experiments were obtained from MedChem Express (U.S.A.), Sigma-Aldrich (U.S.A.), and Santa-Cruz Biotech. (U.S.A.), and the purity of all the compounds tested was 98% or higher.
(§2) Aggregation Experiments: Prior to aggregation studies, it is necessary to remove metal ions that had interacted with granins during purification process from granins through extensive treatments with chelating agents such as Chelex 100 (Bio-Rad, U.S.A) to dissociate the granin aggregates. For metal-induced aggregation studies, Chelex 100-treated CGA, CGB, or SgII in 2 mM MOPS, pH 7.4, was titrated with concentrated metal ions such as CuCl2, FeCl2, and ZnCl2. Aggregation was monitored by measuring the turbidity change with a Beckman DU640 uv/vis spectrophotometer. All the measurements were done at 24° C.
(§3) Materials: The major granin proteins, chromogranin A (CGA), chromogranin B (CGB), and secretogranin II (SgII) were purified from secretory granules of bovine adrenal medulla as described (Park et al., 2002; Yoo, 1995; Yoo and Albanesi, 1990). Chelex 100 was from Bio-Rad, and other chemicals were of highest purity that is commercially available.
(§4) Aggregation Experiments: Prior to aggregation studies, it is necessary to remove metal ions that had interacted with granins during purification process from granins through extensive treatments with chelating agents such as Chelex 100 to dissociate the granin aggregates. For metal-induced aggregation studies, Chelex 100-treated CGA, CGB, or SgII in 2 mM MOPS, pH 7.4, was titrated with concentrated metal ions such as CuCl2, FeCl2, and ZnCl2. Aggregation was monitored by measuring the turbidity change with a Beckman spectrophotometer. All the measurements were done at 24° C.

chromogranin B (CGB) = target: T2, chromogranin B (CGB) (Bos taurus, UniProt P23389); experiment: Metal-induced chromogranin B aggregation (turbidity); assay type: biochemical, bovine; conditions: 1 μM compound, pH 7.4; for Fe2+-induced chromogranin B aggregation / Cu2+-induced chromogranin B aggregation: chromogranin B 0.005 mg/ml (0.06 μM)
T2 construct: from tissue; host or cells: secretory granules of bovine adrenal medulla
T2 sequence (P23389 21-646): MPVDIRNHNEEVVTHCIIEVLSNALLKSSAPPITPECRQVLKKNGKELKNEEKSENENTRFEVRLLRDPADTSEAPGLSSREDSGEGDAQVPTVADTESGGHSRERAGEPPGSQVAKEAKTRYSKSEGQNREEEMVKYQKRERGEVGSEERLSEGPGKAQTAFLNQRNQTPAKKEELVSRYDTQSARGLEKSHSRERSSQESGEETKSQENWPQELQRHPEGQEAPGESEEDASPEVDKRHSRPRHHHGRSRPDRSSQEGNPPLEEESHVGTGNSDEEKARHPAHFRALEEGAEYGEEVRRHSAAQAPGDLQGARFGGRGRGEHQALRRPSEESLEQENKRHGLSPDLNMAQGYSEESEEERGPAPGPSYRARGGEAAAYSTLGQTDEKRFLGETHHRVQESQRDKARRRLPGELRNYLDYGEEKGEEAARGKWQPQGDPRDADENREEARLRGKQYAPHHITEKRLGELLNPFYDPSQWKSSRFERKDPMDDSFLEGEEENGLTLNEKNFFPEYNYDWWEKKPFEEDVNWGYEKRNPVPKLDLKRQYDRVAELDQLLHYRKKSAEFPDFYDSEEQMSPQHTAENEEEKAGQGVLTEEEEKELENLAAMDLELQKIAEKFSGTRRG
Description: as §1, §2, §3, §4

secretogranin II (SgII) = target: T3, secretogranin II (SgII) (Bos taurus, UniProt P20616); experiment: Metal-induced secretogranin II aggregation (turbidity); assay type: biochemical, bovine; conditions: 1 μM compound, pH 7.4
T3 construct: from tissue; host or cells: secretory granules of bovine adrenal medulla
T3 sequence (P20616 31-613): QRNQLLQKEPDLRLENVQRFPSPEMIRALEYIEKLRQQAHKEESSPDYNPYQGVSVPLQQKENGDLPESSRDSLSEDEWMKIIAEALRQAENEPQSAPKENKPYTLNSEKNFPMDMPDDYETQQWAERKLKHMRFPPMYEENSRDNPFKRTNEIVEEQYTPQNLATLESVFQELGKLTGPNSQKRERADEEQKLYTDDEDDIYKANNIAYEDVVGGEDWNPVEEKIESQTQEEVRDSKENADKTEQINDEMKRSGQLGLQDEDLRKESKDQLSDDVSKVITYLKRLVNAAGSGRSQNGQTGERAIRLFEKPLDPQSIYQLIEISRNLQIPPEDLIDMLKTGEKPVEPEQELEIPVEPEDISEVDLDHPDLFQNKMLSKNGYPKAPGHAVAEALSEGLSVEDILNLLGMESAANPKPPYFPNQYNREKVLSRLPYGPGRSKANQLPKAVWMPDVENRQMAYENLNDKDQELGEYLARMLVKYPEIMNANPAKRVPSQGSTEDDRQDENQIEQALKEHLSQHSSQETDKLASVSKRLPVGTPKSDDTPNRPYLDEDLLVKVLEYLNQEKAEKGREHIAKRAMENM
Description: as §1, §2, §3, §4

PC12 cells = experiment: MTT cell toxicity assay, granin plus Cu2+ toxicity; assay type: cell-based; conditions: 0.1 μM chromogranin A, 0.06 μM chromogranin B, 0.07 μM secretogranin II, 20 μM Cu2+, 1 μM compound
Description: MTT cell toxicity assay: Cell toxicity assays were done using MTT cell proliferation assay kits from Invitrogen (U.S.A.) and 50,000 PC12 cells/well as described (Cheruvara et al., 2015; Shearman et al., 1994). The assays are designed to detect the level of MTT dye reduction by cells, and the resulting color changes at 570 nm are used as an indicator of cell viability (health). The healthier the cells the higher the color changes.

chromogranin B = target: T4, chromogranin B (Bos taurus, UniProt P23389); experiment: Dynamic light scattering, hydrodynamic state of chromogranin B; assay type: biochemical, bovine; conditions: chromogranin B 0.5 mg/ml (6 μM); 0.2 mM compound; 0.2 mM Fe2+; pH 7.4
T4 construct: from tissue; host or cells: secretory granules of bovine adrenal medulla
T4 sequence (P23389 21-646): T2 sequence (P23389 21-646)
Method: Molecular dynamic light scattering: To determine whether granins are in a monomer-to-oligomer state or in high molecular weight aggregate states in different solution conditions, dynamic light scattering experiments of granins were carried out with a DynaPro NanoStar of Wyatt Technology (Santa Barbara, Calif.) at 24° C., and the results were analyzed by a program (Dynamics 7.5.0) provided by the company.

[1] = secretogranin II 0.005 mg/ml (0.07 μM)

Compound: O=c1c(O)c(-c2ccc(O)cc2O)oc2cc(O)cc(O)c12 [morin]
- Fe2+-induced chromogranin A aggregation (chromogranin A (CGA)): completely suppressed
- Zn2+-induced chromogranin A aggregation (chromogranin A (CGA)): mostly suppressed

Compound: COc1ccc(-c2cc(=O)c3c(OC)c(OC)c(OC)c(OC)c3o2)cc1 [tangeretin]
- Cu2+-induced chromogranin A aggregation (chromogranin A (CGA)): mostly suppressed
- Fe2+-induced chromogranin B aggregation (chromogranin B (CGB)): completely suppressed

Compound: O=c1cc(-c2ccc(O)c(O)c2)oc2cc(O)cc(O)c12 [luteolin]
- Fe2+-induced chromogranin B aggregation (chromogranin B (CGB)): mostly inhibited
- Fe2+-induced secretogranin II aggregation (secretogranin II (SgII); [1]): mostly inhibited
- granin-induced toxicity (cell toxicity, MTT) (PC12 cells): virtually stopped

Compound: Nc1ncnc2c1ncn2[C@@H]1O[C@H](CO)C[C@H]1O [cordycepin]
- Cu2+-induced chromogranin A aggregation (chromogranin A (CGA)): mostly suppressed
- Fe2+-induced secretogranin II aggregation (secretogranin II (SgII); [1]): significantly suppressed

Compound: O=c1c(O)c(-c2ccc(O)c(O)c2)oc2cc(O)ccc12 [fisetin]
- Fe2+-induced chromogranin A aggregation (chromogranin A (CGA)): completely suppressed
- Fe2+-induced secretogranin II aggregation (secretogranin II (SgII); [1]): completely suppressed

Compound: O=c1c(O)c(-c2cc(O)c(O)c(O)c2)oc2cc(O)cc(O)c12 [myricetin]
- Fe2+-induced chromogranin A aggregation (chromogranin A (CGA)): completely suppressed
- Fe2+-induced chromogranin B aggregation (chromogranin B (CGB)): completely suppressed

Compound: COc1cc2ncnc(Nc3cccc(Cl)c3)c2cc1OC [tyrphostin AG1478]
- Fe2+-induced chromogranin A aggregation (chromogranin A (CGA)): significantly suppressed
- Fe2+-induced secretogranin II aggregation (secretogranin II (SgII); [1]): significantly suppressed

Compound: O=c1c(O)c(-c2ccc(O)cc2)oc2cc(O)cc(O)c12 [kaempferol]
- Fe2+-induced chromogranin A aggregation (chromogranin A (CGA)): completely suppressed
- Cu2+-induced secretogranin II aggregation (secretogranin II (SgII); [1]): mostly suppressed

Compound: O=c1c(O)c(-c2ccc(O)c(O)c2)oc2cc(O)cc(O)c12 [quercetin]
- Cu2+-induced chromogranin B aggregation (chromogranin B (CGB)): completely suppressed
- Fe2+-induced secretogranin II aggregation (secretogranin II (SgII); [1]): completely suppressed

Compound: O=c1cc(-c2ccccc2)oc2cc(O)c(O)c(O)c12 [baicalein]
- Cu2+-induced chromogranin B aggregation (chromogranin B (CGB)): mostly suppressed
- Fe2+-induced secretogranin II aggregation (secretogranin II (SgII); secretogranin II 0.01 mg/ml (0.14 μM)): completely suppressed
- chromogranin B in large aggregate state (chromogranin B): 5.3%
- chromogranin B remaining in low molecular weight oligomer state (chromogranin B): 94.7%

Compound: Oc1ccc(C=Cc2cc(O)cc(O)c2)cc1 [resveratrol]
- Fe2+-induced chromogranin B aggregation (chromogranin B (CGB)): mostly suppressed
- Zn2+-induced secretogranin II aggregation (secretogranin II (SgII); [1]): significantly suppressed

Compound: epigallocatechin 3-gallate [EGCG]
- Cu2+-induced secretogranin II aggregation (secretogranin II (SgII); [1]): mostly suppressed
- Fe2+-induced secretogranin II aggregation (secretogranin II (SgII); [1]): completely suppressed

Compound: O=c1cc(-c2ccc(O)cc2)oc2cc(O)cc(O)c12 [apigenin]
- Cu2+-induced chromogranin A aggregation (chromogranin A (CGA)): completely suppressed
- Zn2+-induced chromogranin B aggregation (chromogranin B (CGB); chromogranin B 0.005 mg/ml): mostly suppressed

Compound: COc1cc(OC)c2c(=O)cc(-c3ccccc3)oc2c1 [5,7-dimethoxyflavone]
- Fe2+-induced chromogranin A aggregation (chromogranin A (CGA)): completely suppressed
- Zn2+-induced chromogranin A aggregation (chromogranin A (CGA)): mostly suppressed
